From patent US20260272936A1, “TREATMENT OF CANCER WITH A PARG INHIBITOR” (858 Therapeutics, Inc., priority 2023, published 2026)

Legend:
Experiment in all cases: 6-day cell proliferation, nuclei count
Assay type in all cases: cell-based
HCC1428 cells = conditions: Homo sapiens
Text: (§1) The FU-97 (Cat #JCRB1074) human gastric cancer cell line and the Kuramochi (Cat #JCRB0098) and RMUG-S(Cat #IFO50320) human ovarian cancer cell lines were obtained from the National Institutes of Biomedical Innovation, Health and Nutrition's Japanese Collection of Research Bioresources (JCRB) (Ibaraki City, Osaka, Japan). The HCC1419 (Cat #CRL-2326) and HCC1428 (Cat #CRL-2327) human breast cancer cell lines and the NCI-H1650 (Cat #CRL-5883) and NCI-H1792 (Cat #CRL-5895) non-small cell lung cancer cell lines were obtained from ATCC (Manassas, Virginia, USA). The human gastric cancer cell lines GCIY (Cat #RCB0555) and SNU601 (Cat #CSC-C9686L) were obtained from the Riken Bioresource Research Center (Tsukuba, Ibaraki, Japan) and Creative Bioarray (Shirley, NY, USA), respectively. The T025OV ovarian cancer organoid model was developed from a patient-derived xenograft (PDX) model, which was developed from primary serous ovarian carcinoma cells obtained from Discovery Life Sciences (Huntsville, AL, USA, SN #350627149). T026OV organoids were developed from PDX cells obtained from The Jackson Laboratory (Bar Harbor, ME, USA, Cat #TM00335).
(§2) All cell lines were grown in an incubator at 37° C. in 5% CO2. The Kuramochi and SNU-601 cells were cultured in RPMI+glutaMAX™ (Thermo Fisher Scientific, Waltham, MA, USA Cat #74200120) containing 1% penicillin/streptomycin (pen/strep) (Thermo Fisher Scientific Cat #15070-063), and 10% fetal bovine serum (FBS) (Thermo Fisher Scientific Cat #A31605-02). The HCC1419, HCC1428, NCI-H1650, and NCI-H1792 cells were cultured in ATCC-modified RPMI+glutaMAX™ (Thermo Fisher Scientific Cat #A10491-01) containing 1% pen/strep and 10% FBS. The FU-97 cells were cultured in DMEM+glutaMAX™ (Thermo Fisher Scientific, Waltham, MA, USA Cat #10566-016) containing 1% pen/strep, 10% FBS and 0.01 mg/mL bovine insulin (MilliporeSigma, Burlington, MA, USA Cat #10516-5ML). The GCIY cells were cultured in MEM (Thermo Fisher Scientific Cat #11095-080) containing 1% pen/strep and 15% FBS. The RMUG-S cells were cultured in Ham's F12 medium+glutaMAX™ (Thermo Fisher Scientific Cat #31765-035) containing 10% FBS and 1% pen/strep.
(§3) Compound 1 IC50 values for inhibition of cell proliferation were determined by imaging and counting the number of nuclei after compound treatment. Cells were harvested with trypsin (Thermo Fisher Scientific, Cat #25200-056) and plated in black-walled, clear bottom 96-well Corning costar 3603 plates (VWR, Radnor, PA, USA Cat #29444-008) at 7500 cells/well (HCC1428 and HCC1419), 5000 cells/well (Kuramochi, FU-97, SNU-601), 2500 cells/well (RMUG-S, GCIY, NCI-H1650) or 1000 cells/well (NCI-H1792) in 100 μL normal growth media and incubated overnight at 37° C., 5% CO2. The following day, a 1000× Compound 1 concentration curve was prepared by serial dilution of Compound 1 in 100% DMSO. The 1000× Compound 1 concentration curve was diluted 1:200 into growth media to generate a 5× concentration curve in 0.5% DMSO/growth medium before addition of 25 μL of the 5× compound to the wells. Control wells received 25 μL of 0.5% DMSO/media alone (negative control wells) or 50 μM Compound 1 (positive controls; 10 μM Compound 1 final). The plate was mixed gently on a plate shaker, covered with Breathe-Easy biofilm (Diversified Biotech, Cat #BEM-1), and incubated at 37° C., 5% CO2 for 6 days. Following the incubation period, a 125 μL fixation/permeabilization solution containing 8% paraformaldehyde (Fisher Scientific, Cat #50-980-495, part of Thermo Fisher Scientific) and 0.2% Triton X-100 (Thermo Fisher Scientific, Cat #327372500) in PBS was added to each well of the plate, and the plates were incubated at room temperature for 20 min. The solution was aspirated and cells washed by the addition of 100 μL PBS. After aspiration of the PBS, nuclei were stained by the addition of 100 μL 1 μg/mL DAPI (Thermo Fisher Cat #62248) in PBS. […]

RMUG-S cells = conditions: Homo sapiens, 144 h
Text: as §1, §2, §3

FU-97 cells = conditions: Homo sapiens, Fu97, 144 h
Text: as §1, §2, §3

GCIY cells = conditions: Homo sapiens, 144 h
Text: as §1, §2, §3

HCC1419 cells = conditions: Homo sapiens
Text: as §1, §2, §3

NCI-H1792 cells = conditions: Homo sapiens
Text: as §1, §2, §3

NCI-H1650 cells = conditions: Homo sapiens
Text: as §1, §2, §3

Kuramochi cells = conditions: Homo sapiens, 144 h
Text: as §1, §2, §3

SNU-601 cells = conditions: Homo sapiens
Text: as §1, §2, §3

[1] = read-out: IC50 inhibition of proliferation

[2H]C([2H])(c1cnn(C)c1)N1C(=O)c2cc(S(=O)(=O)NC3(C)CC3)ccc2N2C1=NC[C@H]2C [Compound 1, (R)-1-methyl-4-((1-methyl-1H-pyrazol-4-yl)methyl-d2)-N-(1-methylcyclopropyl)-5-oxo-1,2,4,5-tetrahydroimidazo[1,2-a]quinazoline-7-sulfonamide]
IC90 (HCC1428 cells; 144 h, HCC1428, 6 days, geometric mean, read-out: IC90 inhibition of proliferation): 363 nM | IC50 (HCC1428 cells; HCC1428, 144 h, read-out: IC50 inhibition of proliferation): 131 nM | IC50 (RMUG-S cells; [1]): 75 nM | IC90 (RMUG-S cells; RMUG-S, 6 days, geometric mean, read-out: IC90 inhibition of proliferation): 208 nM | IC50 (FU-97 cells; [1]): 178 nM | IC90 (FU-97 cells; FU-97, 6 days, geometric mean, read-out: IC90 inhibition of proliferation): 833 nM | IC90 (GCIY cells; 6 days, geometric mean, read-out: IC90 inhibition of proliferation): 125 nM | IC50 (GCIY cells; [1]): 28 nM | IC90 (HCC1419 cells; 144 h, HCC1419, 6 days, geometric mean, read-out: IC90 inhibition of proliferation): 206 nM | IC50 (HCC1419 cells; HCC1419, 144 h, read-out: IC50 inhibition of proliferation): 50 nM | IC90 (NCI-H1792 cells; 144 h, NCI-H1792, 6 days, geometric mean, read-out: IC90 inhibition of proliferation): 4.28 µM | IC50 (NCI-H1792 cells; NCI-H1792, 144 h, read-out: IC50 inhibition of proliferation): 1150 nM | IC90 (NCI-H1650 cells; 144 h, NCI-H1650, 6 days, geometric mean, read-out: IC90 inhibition of proliferation): 320 nM | IC50 (NCI-H1650 cells; NCI-H1650, 144 h, read-out: IC50 inhibition of proliferation): 100 nM | IC50 (Kuramochi cells; [1]): 46 nM | IC90 (Kuramochi cells; Kuramochi, 6 days, geometric mean, read-out: IC90 inhibition of proliferation): 133 nM | IC90 (SNU-601 cells; 144 h, SNU-601, 6 days, geometric mean, read-out: IC90 inhibition of proliferation): 539 nM | IC50 (SNU-601 cells; SNU-601, 144 h, read-out: IC50 inhibition of proliferation): 149 nM
